# Data reported in patent US20260102359A1, “COMBINATION TREATMENT OF DERMAL AND TRANSDERMAL FIBROTIC DISEASES, DISORDERS AND ASSOCIATED PAIN AND INFLAMMATION” (ERESINA, LLC, priority 2022, published 2026).
# Counter-ions that a name gives are not always drawn.
# Tested on: hDMFa myofibroblast cells
row,SMILES,Compound Myofibroblast Cytotoxicity Activity
1,"CS(=O)(=O)CCNCc1ccc(-c2ccc3ncnc(Nc4ccc(OCc5cccc(F)c5)c(Cl)c4)c3c2)o1 [Cmpd 558, Lapatinib Ditosylate]",+++
2,"Cc1cc(N)c2ccccc2[n+]1CCCCCCCCCC[n+]1c(C)cc(N)c2ccccc21 [Cmpd 340, Dequalinium Chloride]",++
3,"CCN(CCCCOC(=O)c1ccc(OC)c(OC)c1)C(C)Cc1ccc(OC)cc1.Cl (stereo not shown) [Cmpd 638, Mebeverine Hydrochloride]",++
4,"C[n+]1cc2c3c(ccc2c2ccc4cc5c(cc4c21)OCO5)OCO3 [Cmpd 851, Sanguinarine chloride]",++++
5,"O=C(O)c1ccccc1 [Cmpd 167, Benzoic Acid]",++
6,"O[C@H](CS)[C@H](O)CS (racemic) [Cmpd 368, DL-Dithiothreitol]",++++
7,"C1CCc2nnnn2CC1 [Cmpd 770, Pentylenetetrazole]",++++
8,"O=C1CC[C@@H](C(=O)O)N1 [Cmpd 613, L-Pyroglutamic acid]",++++
9,"CCC1=C[C@@H]2CN(C1)Cc1c([nH]c3ccccc13)[C@@](C(=O)OC)(c1cc3c(cc1OC)N(C)[C@H]1[C@@](O)(C(=O)OC)[C@H](OC(C)=O)[C@]4(CC)C=CCN5CC[C@]31[C@@H]54)C2 [Cmpd 1005, Vinorelbine]",++
10,"Clc1ccc(C(Cn2ccnc2)OCc2ccsc2Cl)c(Cl)c1 (stereo not shown) [Cmpd 947, Tioconazole]",+++
11,"O=C(O)C=Cc1ccccc1 [Cmpd 266, Cinnamic acid]",++
12,"C=C(c1ccc(C(=O)O)cc1)c1cc2c(cc1C)C(C)(C)CCC2(C)C [Cmpd 178, Bexarotene]",++++
13,"Cc1ccc(NC(=O)c2ccc(CN3CC[C@H](N(C)C)C3)c(C(F)(F)F)c2)cc1Nc1nccc(-c2cncnc2)n1 [Cmpd 152, Bafetinib (INNO-406)]",+++
14,"CO/N=C(\C(=O)N[C@@H]1C(=O)N2C(C(=O)OC(C)OC(C)=O)=C(COC(N)=O)CS[C@H]12)c1ccco1 (stereo partly shown) [Cmpd 238, Cefuroxime axetil]",++
15,"COC(=O)C1=C(C)NC(C)=C(C(=O)OC(C)C)C1c1cccc2nonc12 (stereo not shown) [Cmpd 544, Isradipine (Dynacirc)]",++
16,"O=c1[nH]c(=O)c2[nH]cnc2[nH]1 [Cmpd 1020, xanthine]",++
17,"CCCCCCCCCCCCCCCC(=O)OC/C=C(C)/C=C/C=C(C)/C=C/C1=C(C)CCCC1(C)C [Cmpd 830, Retinyl (Vitamin A) Palmitate]",++
18,"C=CCNC1=C2C[C@@H](C)C[C@H](OC)[C@H](O)[C@@H](C)/C=C(\C)[C@H](OC(N)=O)[C@@H](OC)/C=C\C=C(/C)C(=O)NC(=CC1=O)C2=O [Cmpd 40, 17-AAG (KOS953)]",+++
19,"O=C(O)CCCCCCCCC(=O)O.O=C(O)CCCCCCCCC(=O)O [Cmpd 858, sebacate (decanedioate)]",++
20,"O=C1/C(=C2\Nc3ccc(S(=O)(=O)[O-])cc3C2=O)Nc2ccc(S(=O)(=O)[O-])cc21.[Na+].[Na+] [Cmpd 528, Indigo carmine]",++
21,"NCCCS(=O)(=O)O [Cmpd 961, Tramiprosate]",+++++

row,SMILES,Compound Myofibroblast Cytotoxicity Activity
1,"COc1ccccc1N1CCN(CC(O)COc2cccc3ccccc23)CC1 (stereo not shown) [Cmpd 697, Naftopidil]",+++
2,"CNCC[C@H](Oc1cccc2ccccc12)c1cccs1 [Cmpd 397, Duloxetine HCl]",+++++
3,"CC1(C)S[C@@H]2[C@H](NC(=O)[C@H](N)c3ccccc3)C(=O)N2[C@H]1C(=O)OCOC(=O)[C@@H]1N2C(=O)C[C@H]2S(=O)(=O)C1(C)C [Cmpd 902, Sultamicillin]",++
4,"CCOc1ccc(Cc2cc([C@@H]3O[C@H](CO)[C@@H](O)[C@H](O)[C@H]3O)ccc2Cl)cc1.C[C@H](O)CO.O [Cmpd 321, Dapagliflozin ((2S)-1,2-propanediol,hydrate)]",++
5,"O=C([O-])C[C@H](O)C[C@H](O)/C=C/c1c(C2CC2)nc2ccccc2c1-c1ccc(F)cc1.O=C([O-])C[C@H](O)C[C@H](O)/C=C/c1c(C2CC2)nc2ccccc2c1-c1ccc(F)cc1.[Ca+2] [Cmpd 786, Pitavastatin Calcium]",+++
6,"CN(C(=O)CN(CCO)CC(=O)N(C)C(C)(C)Cc1ccccc1)C(C)(C)Cc1ccccc1 [Cmpd 745, Oxethazaine]",+++++
7,"O=C1O[C@H]([C@@H](O)CO)C(O)=C1O [Cmpd 562, L-Ascorbic Acid (Vitamin C)]",+
8,"CCOC(=O)C1=C(C)NC(C)=C(C(=O)OC)C1c1cccc([N+](=O)[O-])c1 (stereo not shown) [Cmpd 719, Nitrendipine]",+++
9,"CN(Cc1cnc2nc(N)nc(N)c2n1)c1ccc(C(=O)N[C@@H](CCC(=O)[O-])C(=O)[O-])cc1.[Na+].[Na+] [Cmpd 658, Methotrexate disodium]",++
10,"Cc1ncc(CO)c(CO)c1O [Cmpd 809, Pyridoxine]",++
11,"COc1cc(C(=O)O)ccc1O [Cmpd 995, Vanillic acid]",++
12,"Cc1cc(O)c2c(c1)C(=O)c1cc(O)cc(O)c1C2=O [Cmpd 415, Emodin (6-Methyl-1,3,8-trihydroxyanthraquinone)]",++
13,"O[C@H]1[C@H](O)[C@@H](O)[C@H](O)[C@@H](O)[C@H]1O [Cmpd 692, myo-Inositol]",++++
14,"CC(C)(S)[C@@H](N)C(=O)O [Cmpd 766, Penicillamine]",++
15,"C=CC(=O)Nc1cccc(Oc2nc(Nc3ccc(N4CCN(C)CC4)cc3)nc3ccsc23)c1 [Cmpd 735, Olmutinib (HM61713, BI1482694)]",++++
16,"O=C(O)c1cc(-c2ccc(F)cc2F)ccc1O [Cmpd 359, Diflunisal]",++
17,"COC(=O)C1=C(C)NC(C)=C(C(=O)OCC(C)C)C1c1ccccc1[N+](=O)[O-] (stereo not shown) [Cmpd 717, Nisoldipine]",+++
18,"COC(=O)c1ccc(O)cc1 [Cmpd 664, Methylparaben]",++
19,"O=c1c(-n2ccnn2)c[nH]n1-c1cc(N2CCOCC2)ncn1 [Cmpd 687, Molidustat (BAY85-3934)]",+++
20,"CC1=CC(=O)[C@H]2C[C@@H]1C2(C)C [Cmpd 20, (1S)-(−)-Verbenone]",++
21,"O=C([O-])CN(CCN(CC(=O)[O-])CC(=O)[O-])CC(=O)[O-].[Ca+2].[Na+].[Na+] [Cmpd 404, edetate calcium disodium]",++

row,SMILES,Compound Myofibroblast Cytotoxicity Activity
1,"COc1ccc2cc3[n+](cc2c1OC)CCc1cc2c(cc1-3)OCO2.[Cl-] [Cmpd 172, Berberine hydrochloride]",++
2,"CC(=O)[C@H]1CC[C@H]2[C@@H]3CCC4=CC(=O)CC[C@]4(C)[C@H]3CC[C@]12C [Cmpd 799, Progesterone]",+++
3,"CC1=NN(c2ccc(C)c(C)c2)C(=O)/C1=N\Nc1cccc(-c2cccc(C(=O)O)c2)c1O [Cmpd 410, Eltrombopag]",++
4,"C=C1CC[C@@H]2[C@](C)(CO)[C@H](O)CC[C@@]2(C)[C@@H]1/C=C/C1=CCOC1=O [Cmpd 334, Dehydroandrographolide]",++
5,"Nc1n[n+]([O-])c2ccccc2[n+]1[O-] [Cmpd 948, Tirapazamine]",++++
6,"CCOC(=O)C1=C(COCCN)NC(C)=C(C(=O)OC)[C@@H]1c1ccccc1Cl [Cmpd 580, Levamlodipine]",+++++
7,"CC(CCc1ccccc1)NCC(O)c1ccc(O)c(C(N)=O)c1 (stereo not shown) [Cmpd 553, Labetalol HCl]",++
8,"C=Cc1c(C)c2cc3nc(cc4[nH]c(cc5nc(cc1[nH]2)C(C)=C5CCC(=O)O)c(CCC(=O)OC)c4C)[C@@]1(C)C3=CC=C(C(=O)OC)[C@H]1C(=O)OC [Cmpd 999, Verteporfin]",+++++
9,"CC(C)=CCC/C(C)=C/CC/C(C)=C/CC/C(C)=C/CC1=C(C)C(=O)c2ccccc2C1=O [Cmpd 652, Menaquinone 4]",++
10,"C[C@@H](Oc1cc(-c2cnn(C3CCNCC3)c2)cnc1N)c1c(Cl)ccc(F)c1Cl [Cmpd 27, (R)-Crizotinib]",++++
11,"CCOc1nc2cccc(C(=O)OC(C)OC(=O)OC3CCCCC3)c2n1Cc1ccc(-c2ccccc2-c2nnn[nH]2)cc1 (stereo not shown) [Cmpd 211, Candesartan Cilexetil]",+++
12,"CC(C)(C)C#Cc1cc(N(C(=O)[C@H]2CC[C@H](C)CC2)[C@H]2CC[C@H](O)CC2)c(C(=O)O)s1 [Cmpd 1014, VX-222 (VCH-222,Lomibuvir)]",++
13,"CC/C=C\C/C=C\C/C=C\C/C=C\C/C=C\C/C=C\CCC(=O)O [Cmpd 375, Docosahexaenoic Acid]",+++
14,"COc1ccc(Cc2cnc(N)nc2N)cc1OC [Cmpd 349, Diaveridine]",++
15,"CNCCc1ccccn1.CS(=O)(=O)O.CS(=O)(=O)O [Cmpd 175, Betahistine mesylate]",++
16,"CN(C)CCC=C1c2ccccc2COc2ccccc21 [Cmpd 385, Doxepin (hydrochloride)]",++
17,"CCCN(CCC)C(=O)C1=Cc2ccc(-c3ccc(C(=O)N4CCCC4)cc3)cc2N=C(N)C1 [Cmpd 690, Motolimod (VTX-2337)]",++
18,"CC=CC(=O)N(CC)c1ccccc1C [Cmpd 298, Crotamiton]",++
19,"COc1ccc2[n-]c([S+]([O-])Cc3ncc(C)c(OC)c3C)nc2c1.[Na+] (stereo not shown) [Cmpd 737, Omeprazole Sodium]",++
